Inhibition data for one compound are collected here from PMC6934184, “Selective DNA-PKcs inhibition extends the therapeutic index of localized radiotherapy and chemotherapy” (The Journal of Clinical Investigation, 2019).

Each structure is given as a SMILES string.

This assay concerns the target T1, ITK (Homo sapiens, UniProt Q08881).
T1 construct: purchased Thermo Fisher Scientific (Life Technologies) SelectScreen
The experiment in a line: SelectScreen Z'LYTE. Format: biochemical. In a few lines:
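SelectScreen broad panel; activity (Z'LYTE, Adapta) plus binding formats. ATP: Km app for CSF1R Z'LYTE; 10 for CAMK1 Adapta. Readout = % per kinase.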

T1 sequence (Q08881 whole entry): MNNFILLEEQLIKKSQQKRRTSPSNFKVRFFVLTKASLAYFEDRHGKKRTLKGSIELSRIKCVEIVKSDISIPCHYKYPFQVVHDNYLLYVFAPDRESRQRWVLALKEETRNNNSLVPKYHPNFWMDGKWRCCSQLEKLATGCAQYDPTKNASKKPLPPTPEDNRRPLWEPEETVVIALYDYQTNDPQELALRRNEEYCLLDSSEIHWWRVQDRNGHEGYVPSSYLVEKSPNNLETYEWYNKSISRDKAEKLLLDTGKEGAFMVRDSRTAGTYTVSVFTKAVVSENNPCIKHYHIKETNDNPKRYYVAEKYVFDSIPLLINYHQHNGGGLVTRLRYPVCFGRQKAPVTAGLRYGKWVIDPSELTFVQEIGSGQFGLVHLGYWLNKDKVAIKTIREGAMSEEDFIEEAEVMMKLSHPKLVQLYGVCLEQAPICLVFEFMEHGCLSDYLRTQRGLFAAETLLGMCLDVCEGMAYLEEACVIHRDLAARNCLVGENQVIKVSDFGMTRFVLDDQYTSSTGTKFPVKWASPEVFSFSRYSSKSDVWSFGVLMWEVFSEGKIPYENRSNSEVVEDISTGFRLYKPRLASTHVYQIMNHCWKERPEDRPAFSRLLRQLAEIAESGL

One may read the inhibition as the percentage by which the read-out fell short of the control. Read a high inhibition as a strong effect. In turn, `CN(C(=O)CN1CCOCC1)c1ccc2sc3c(-c4cccc5c(=O)cc(N6CC7CCC(C6)O7)oc45)cccc3c2c1` [NU5455] gave an inhibition at 1 µM of 5.5%.
